Results as given in patent publication US20210108198A1, “APPLICATION OF COMPOUND OR TRADITIONAL CHINESE MEDICINE EXTRACT IN PREPARATION OF NUCLEIC ACID DELIVERY AGENT AND RELATED PRODUCTS THEREOF” (INSTITUTE OF BASIC MEDICAL SCIENCES CHINESE ACADEMY OF …, priority 2017, published 2021).

Assays:
A549 cell line = experiment: Fluorescence in situ hybridization (FISH) of small RNA delivered by lipid; type: cell-based, human; conditions: reverse evaporation method; FIG. 12
Method: 3.3.3 Fluorescence In Situ Hybridization (FISH) of Small RNA
9) The culture plate was placed in a hybridization cassette in hybridization buffer (50% formamide, 5×SSC, 5× Denharts, 250 μg/mL yeast RNA, 500 μg/mL herring sperm DNA) and pre-incubated at room temperature for 1 hour.
10) Add RNA probes (HJT-sRNA-m7 probe: 5′-[…]-3′ (SEQ ID NO: 27), Scrambled probe: 5′-[…]-3′ (SEQ ID NO: 28), U6 probe: 5′-[…]-3′ (SEQ ID NO: 29)) to the hybridization buffer (the concentration of RNA probes was 0.1-0.2 ng/μ1), denature at 85° C. for 5 min, and quickly place it on ice. […]
(§1) Mixtures of soybean PC, lipid No. 11 (18:0/18:2) and lipid No. 12 (16:0/18:2), and various small RNA (see below Table 3) were prepared by the reverse evaporation method and then added into A549 cell line (the final concentration of sRNA was 200 nM); the negative control group (control) was directly added with the same concentration of sRNA; the positive control group (RNAimax) was transfected with Lipofectamine RNAimax (transfection reagent 6 μl/well). The abundance of sRNA in the cells was detected by Taqman probe after 3 hours, and the relative expression level of sRNA was calculated by 2-ΔCt method.

[1] = In vivo delivery of lipid nucleic acid mixture by gavage (blood and lung); set-up: species or system C57 mice; conditions: gavage 200 μl/animal; 6 hours after gavage; FIG. 14
Method: 1. Preparation of lipid nucleic acid mixture: the mixture of lipid No. 11 or No. 12 with nucleic acid, and the mixture of the lipid combination of No. 1/2/4/9/14/18/19/20/21/22/23/24/25/26/27/28/29/30/32, No. 3/8/10/11/12/13, and No. 6/15/16/17/31 with nucleic acid were prepared by reverse evaporation and boiling method (refer to steps 2.1-2.2).
2. Gavage were performed on 6-8 weeks old male C57 mice: 200 μl/aminal, grouped as follows:
(1) Control group (free uptake group): no treatment or HJT-sRNA-m7 was given by gavage;
(2) Lipid No. 11 (18:0/18:2) group: lipid No. 11 (18:0/18:2) or a mixture of lipid No. 11 (18:0/18:2) and HJT-sRNA-m7 were given by gavage;
(3) Lipid No. 12 (16:0/18:2) group: lipid No. 12 (16:0/18:2) or a mixture of lipid No. 12 (16:0/18:2) and HJT-sRNA-m7 were given by gavage;
3. Sample collection: 6 hours after gavage, mouse whole blood (500 μl) and lung (110 mg) were collected by 1.5 mL TRIzol-LS or 3 mL TRIzol, respectively, homogenized and then frozen under −80° C. for storage.
4. […]

A549 cell = experiment: RT-qPCR detection of nucleic acid delivered by lipid into A549 cells; type: cell-based, human; conditions: various small RNA 200 nM; reverse evaporation method; 3 hours; compared with the control; FIG. 11A-C
Method: 3.1 NCI-N87 cell (gastric cancer cell), MRC-5 cell (lung fibroblast), A549 cell (lung cancer cell) were cultured to logarithmic growth phase, and then plated to a six-well plate at cell density of 1×10^6/2 mL medium/well; MRC-5 cell was cultured in Eagle's MEM medium (MEM, Gibco); A549 cell was cultured in Ham's F-12 medium (HyClone); NCI-N87 cell was cultured in RPMI-1640 medium (HyClone); followed by incubation overnight at 37° C., and the follow-up experiments were performed after the cells were attached to the walls.
4) Lipid nucleic acid mixture: the mixture of lipid and HJT-sRNA-m7 prepared from the step 2 were added into cells and mixed, and the final concentration of RNA was kept at 200 nM.
3.3 After co-incubation with the small RNA for 3 hours, the cells were washed 2-3 times with PBS. The cells were harvested with TRIzol lysis buffer, and the total RNA was extracted. The abundance of small RNA that entered cells was detected by RT-qPCR, and the localization of RNA was detected by fluorescence in situ hybridization; protocols of each detection method were as follows:
3.3.1 RT-qPCR Detection of Small RNA (Taqman Probe Method)
3.3.2 RT-qPCR Detection of Small RNA (SYBR Green Dye Method)
as §1
3.1.3 After co-incubation with cells for 12-24 hours, the cells were washed twice with PBS. The cells were harvested with TRIzol lysis buffer (purchased from Sigma-Aldrich), and total RNA was extracted. The abundance of HJT-sRNA-m7 that entered the cells was detected by RT-qPCR; the protocols were as follows:
4368813) was used to reverse transcribe sRNA to cDNA by stem-loop method (see, e.g. Real-time quantification of microRNAs by stem-loop RT-PCR, Nucleic Acids Res. 2005 Nov. 27; 33(20):e179, incorporated by reference herein).

[2] = system: 3′UTRs of their target genes; experiment: Luciferase with wild-type or mutated 3′UTR of target gene after lipid-mediated sRNA delivery; type: cell-based; conditions: FIG. 13
Description: It can be used as a means for the delivery of nucleic acid drug.

Compound	localization of delivered nucleic acid (FISH) (A549 cell line)	entry of HJT-sRNA-m7 into blood and lung (RT-qPCR) [1]	abundance of sRNA in the cells (Taqman probe) (A549 cell)	effect on the mutated 3′UTR of target genes (Luciferase) [2]	relative expression level of the Luciferase with the wild-type 3′UTR [2]
CCCCC/C=C\C/C=C\CCCCCCCC(=O)O[C@H](COC(=O)CCCCCCCCCCCCCCCCC)COP(=O)([O-])OCC[N+](C)(C)C [No. 11, trimethyl(2-{[(2R)-2-[(9Z,12Z)-octadeca-9,12-dienoyloxy]-3-(octadecanoyloxy)propylphosphonato]oxy}ethyl)azanium]	entered into cytoplasm and were primarily localized in cytoplasm	could promote entry of small fragments of nucleic acids into the blood and lung	could effectively facilitate nucleic acid molecules of different sequences entry into various cells	did not act on the mutated 3′UTR of their target genes	reduced the relative expression level of the Luciferase with the wild-type 3′UTR in the target gene
CCCCC/C=C\C/C=C\CCCCCCCC(=O)O[C@H](COC(=O)CCCCCCCCCCCCCCC)COP(=O)([O-])OCC[N+](C)(C)C [No. 12, (2-{[(2R)-3-(hexadecanoyloxy)-2-[(9Z,12Z)-octadeca-9,12-dienoyloxy]propylphosphonato]oxy}ethyl)trimethylazanium]	entered into cytoplasm and were primarily localized in cytoplasm	could promote entry of small fragments of nucleic acids into the blood and lung	could effectively facilitate nucleic acid molecules of different sequences entry into various cells	did not act on the mutated 3′UTR of their target genes	reduced the relative expression level of the Luciferase with the wild-type 3′UTR in the target gene
